Source: PMC6199744, “Development of Chemical Proteomics for the Folateome and Analysis of the Kinetoplastid Folateome” (ACS Infectious Diseases, 2018)
Like-named read-outs stand apart in the source and are kept apart here.

What was measured:
Assay type in all cases: binding
[1] = molecular target: T1, HeLa cell extract proteins (Homo sapiens, UniProt O00767); conditions: captured protein SCD; HeLa
T1 construct: endogenous in cells; host or cells: HeLa cell extract
T1 sequence (O00767 1-359): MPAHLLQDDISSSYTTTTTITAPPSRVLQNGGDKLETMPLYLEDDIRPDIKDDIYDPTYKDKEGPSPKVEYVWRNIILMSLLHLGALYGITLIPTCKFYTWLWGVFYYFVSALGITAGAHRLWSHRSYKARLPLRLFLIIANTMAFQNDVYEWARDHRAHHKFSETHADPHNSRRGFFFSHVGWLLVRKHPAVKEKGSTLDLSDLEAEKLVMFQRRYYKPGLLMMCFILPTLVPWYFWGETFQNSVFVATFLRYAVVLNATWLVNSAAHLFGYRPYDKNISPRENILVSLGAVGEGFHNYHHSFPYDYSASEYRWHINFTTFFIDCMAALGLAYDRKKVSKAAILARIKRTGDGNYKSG

[2] = molecular target: T2, HeLa cell extract proteins (Homo sapiens, UniProt P41250); conditions: protein GARS; HeLa
T2 construct: endogenous in cells; host or cells: HeLa cell extract
T2 sequence (P41250 37-739): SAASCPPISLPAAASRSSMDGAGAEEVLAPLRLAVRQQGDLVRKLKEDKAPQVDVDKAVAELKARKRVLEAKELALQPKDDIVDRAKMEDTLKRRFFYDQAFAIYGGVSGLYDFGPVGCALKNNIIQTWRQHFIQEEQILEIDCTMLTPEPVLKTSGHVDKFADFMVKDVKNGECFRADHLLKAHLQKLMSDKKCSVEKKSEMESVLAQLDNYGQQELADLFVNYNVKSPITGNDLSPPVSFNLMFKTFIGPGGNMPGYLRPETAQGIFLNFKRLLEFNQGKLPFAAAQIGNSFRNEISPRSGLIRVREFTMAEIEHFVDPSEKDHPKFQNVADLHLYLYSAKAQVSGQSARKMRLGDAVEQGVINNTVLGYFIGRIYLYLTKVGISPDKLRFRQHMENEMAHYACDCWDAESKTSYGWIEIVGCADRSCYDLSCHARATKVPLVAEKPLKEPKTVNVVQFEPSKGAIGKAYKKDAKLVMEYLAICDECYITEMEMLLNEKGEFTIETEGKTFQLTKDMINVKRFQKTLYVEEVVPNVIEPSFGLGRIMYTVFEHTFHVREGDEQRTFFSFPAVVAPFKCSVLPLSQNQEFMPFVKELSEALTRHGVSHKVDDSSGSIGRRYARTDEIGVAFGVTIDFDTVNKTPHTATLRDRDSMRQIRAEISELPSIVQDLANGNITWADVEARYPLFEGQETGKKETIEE

[3] = molecular target: T3, HeLa cell extract proteins (Homo sapiens, UniProt P13727)
T3 construct: endogenous in cells; host or cells: HeLa cell extract
T3 sequence (P13727 106-222): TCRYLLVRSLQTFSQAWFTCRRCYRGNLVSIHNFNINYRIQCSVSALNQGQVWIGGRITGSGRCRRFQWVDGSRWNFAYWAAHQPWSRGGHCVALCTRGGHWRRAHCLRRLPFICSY

[4] = molecular target: T4, HeLa cell extract proteins (Homo sapiens, UniProt Q8NB46)
T4 construct: endogenous in cells; host or cells: HeLa cell extract
T4 sequence (Q8NB46 1-1076): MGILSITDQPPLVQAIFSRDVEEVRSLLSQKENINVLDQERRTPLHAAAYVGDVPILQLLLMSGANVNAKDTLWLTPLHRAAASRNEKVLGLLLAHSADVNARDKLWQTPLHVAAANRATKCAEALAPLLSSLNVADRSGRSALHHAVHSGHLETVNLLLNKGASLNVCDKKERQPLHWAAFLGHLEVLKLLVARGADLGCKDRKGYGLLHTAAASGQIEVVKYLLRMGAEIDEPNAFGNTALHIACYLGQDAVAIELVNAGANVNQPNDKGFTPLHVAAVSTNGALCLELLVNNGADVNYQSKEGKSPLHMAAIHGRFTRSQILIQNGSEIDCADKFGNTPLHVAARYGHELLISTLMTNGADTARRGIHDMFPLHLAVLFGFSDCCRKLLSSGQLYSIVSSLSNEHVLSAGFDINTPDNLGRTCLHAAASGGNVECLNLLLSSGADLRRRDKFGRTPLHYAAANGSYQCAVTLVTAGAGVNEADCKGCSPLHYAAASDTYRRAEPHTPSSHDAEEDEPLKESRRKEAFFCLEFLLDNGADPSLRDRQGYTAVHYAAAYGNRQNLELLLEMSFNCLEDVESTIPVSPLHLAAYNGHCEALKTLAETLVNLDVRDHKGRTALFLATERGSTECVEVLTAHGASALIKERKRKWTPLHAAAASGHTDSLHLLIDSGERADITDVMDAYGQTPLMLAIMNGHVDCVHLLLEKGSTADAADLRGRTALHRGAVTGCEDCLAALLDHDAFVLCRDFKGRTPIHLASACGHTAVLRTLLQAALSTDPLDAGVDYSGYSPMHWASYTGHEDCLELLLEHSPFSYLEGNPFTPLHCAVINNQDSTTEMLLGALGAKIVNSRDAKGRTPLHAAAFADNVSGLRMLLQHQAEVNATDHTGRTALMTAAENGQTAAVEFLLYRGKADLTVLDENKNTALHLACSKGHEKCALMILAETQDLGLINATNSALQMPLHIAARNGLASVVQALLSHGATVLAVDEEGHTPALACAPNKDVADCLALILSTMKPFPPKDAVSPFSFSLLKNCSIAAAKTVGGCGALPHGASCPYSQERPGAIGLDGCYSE

Structure (SMILES)	fold changes relative to vehicle control [1]	fold changes relative to vehicle control [2]	fold changes relative to vehicle control ([3]; HeLa, captured protein PRG2)	fold changes relative to vehicle control ([4]; HeLa, protein ANKRD52)	also measured
Nc1nc2cccc(-c3ccccc3)c2n1Cc1ccc(Cl)c(Cl)c1 [compound 3]	1	0.93	–	–	–
Nc1nc2[nH]cc(CCc3ccc(C(=O)N[C@@H](CCC(=O)O)C(=O)O)cc3)c2c(=O)[nH]1 [PTX, pemetrexed]	–	–	–	–	fold changes relative to vehicle control [3]: 0.86; fold changes relative to vehicle control [4]: 1.01
Nc1nc2c(c(=O)[nH]1)N(C=O)C(CNc1ccc(C(=O)N[C@@H](CCC(=O)O)C(=O)O)cc1)CN2 (some centres unmarked) [LEU, leucovorin]	–	–	0.92	0.89	–
CCCCCCOc1cccc(Cc2cnc(N)nc2N)c1 [compound 2]	0.91	1.74	–	–	–
NCCOCCOCC(=O)Nc1nc2ncc(CNc3ccc(C(=O)NC(CCC(=O)O)C(=O)O)cc3)nc2c(=O)[nH]1 (centres unmarked) [compound 6]	–	–	0.77	1.06	–
CCCCCCOc1ccc(Cc2cnc(N)nc2N)cc1 [compound 1]	0.92	1.14	–	–	–
NCCCNc1ccc(C(=O)NC(CCC(=O)O)C(=O)O)cc1 (centres unmarked) [compound 7]	–	–	1.01	1.03	–
